{
  "source": "the supplement of paper PMC10307832",
  "test_in_all_cases": "relative viability (nuclei count vs DMSO), 5 days (fraction); higher = more cells survive",
  "key": {"[1]": {"tested_on": "201T", "procedure,_shortened": "(§1)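 For relative viability, nuclei counts in treated wells were divided by those in vehicle wells. Lung cancer cell lines had been pin-tool dosed in 1536-well plates the day after seeding and cultured for 5 days, then fixed and stained in one step (final 0.05% Triton X-100, 1% formaldehyde, 1 ug/ml Hoechst) and imaged at 4×. Doses were one drug alone or a fixed anchor-drug dose plus five library-drug doses (not always all listed) in √10 steps, and values are duplicate-plate medians.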"}, "[2]": {"tested_on": "ABC-1", "procedure,_shortened": "as §1"}, "[3]": {"tested_on": "EBC-1", "procedure,_shortened": "as §1"}, "[4]": {"tested_on": "EMC-BAC-2", "procedure,_shortened": "as §1"}, "[5]": {"tested_on": "EPLC-272H", "procedure,_shortened": "as §1"}, "[6]": {"tested_on": "HCC-78", "procedure,_shortened": "as §1"}, "[7]": {"tested_on": "IA-LM", "procedure,_shortened": "as §1"}, "[8]": {"tested_on": "LCLC-103H", "procedure,_shortened": "as §1"}, "[9]": {"tested_on": "LOU-NH91", "procedure,_shortened": "as §1"}, "[10]": {"tested_on": "NCI-H1395", "procedure,_shortened": "as §1"}, "[11]": {"tested_on": "NCI-H1437", "procedure,_shortened": "as §1"}, "[12]": {"tested_on": "NCI-H1651", "procedure,_shortened": "as §1"}, "[13]": {"tested_on": "NCI-H1793", "procedure,_shortened": "as §1"}, "[14]": {"tested_on": "NCI-H1915", "procedure,_shortened": "as §1"}, "[15]": {"tested_on": "NCI-H1975", "procedure,_shortened": "as §1"}, "[16]": {"tested_on": "NCI-H2023", "procedure,_shortened": "as §1"}, "[17]": {"tested_on": "NCI-H2342", "procedure,_shortened": "as §1"}, "[18]": {"tested_on": "NCI-H23", "procedure,_shortened": "as §1"}, "[19]": {"tested_on": "NCI-H2405", "procedure,_shortened": "as §1"}, "[20]": {"tested_on": "NCI-H647", "procedure,_shortened": "as §1"}, "[21]": {"tested_on": "NCI-H661", "procedure,_shortened": "as §1"}, "[22]": {"tested_on": "RERF-LC-KJ", "procedure,_shortened": "as §1"}, "[23]": {"tested_on": "SK-LU-1", "procedure,_shortened": "as §1"}, "[24]": {"tested_on": "UMC-11", "procedure,_shortened": "as §1"}},
  "data": [
    {"compound": "CCCCCCCCCCCC1=C(O)C(=O)C=C(O)C1=O", "note": "[Embelin] + COc1cc2c(Oc3ccc(NC(=O)C4(C(=O)Nc5ccc(F)cc5)CC4)cc3F)ccnc2cc1OCCCN1CCOCC1 [Foretinib] (partner 0.25 µM)", "values": [
      {"measurement": "relative viability", "setting": "[1]; first compound 0.08 µM", "result": 1.14},
      {"measurement": "relative viability", "setting": "[1]; first compound 0.8 µM", "result": 1.15},
      {"measurement": "relative viability", "setting": "[1]; first compound 2.53 µM", "result": 1.18},
      {"measurement": "relative viability", "setting": "[1]; first compound 8 µM", "result": 0.961},
      {"measurement": "relative viability", "setting": "[2]; first compound 0.08 µM", "result": 1.17},
      {"measurement": "relative viability", "setting": "[2]; first compound 0.8 µM", "result": 1.12},
      {"measurement": "relative viability", "setting": "[2]; first compound 2.53 µM", "result": 1.05},
      {"measurement": "relative viability", "setting": "[2]; first compound 8 µM", "result": 1.08},
      {"measurement": "relative viability", "setting": "[3]; first compound 0.08 µM", "result": 0.0948},
      {"measurement": "relative viability", "setting": "[3]; first compound 0.8 µM", "result": 0.124},
      {"measurement": "relative viability", "setting": "[3]; first compound 2.53 µM", "result": 0.102},
      {"measurement": "relative viability", "setting": "[3]; first compound 8 µM", "result": 0.103},
      {"measurement": "relative viability", "setting": "[4]; first compound 0.08 µM", "result": 1.05},
      {"measurement": "relative viability", "setting": "[4]; first compound 0.8 µM", "result": 1.09},
      {"measurement": "relative viability", "setting": "[4]; first compound 2.53 µM", "result": 0.973},
      {"measurement": "relative viability", "setting": "[4]; first compound 8 µM", "result": 1.07},
      {"measurement": "relative viability", "setting": "[5]; first compound 0.08 µM", "result": 0.736},
      {"measurement": "relative viability", "setting": "[5]; first compound 0.8 µM", "result": 0.866},
      {"measurement": "relative viability", "setting": "[5]; first compound 2.53 µM", "result": 0.916},
      {"measurement": "relative viability", "setting": "[5]; first compound 8 µM", "result": 0.65},
      {"measurement": "relative viability", "setting": "[6]; first compound 0.08 µM", "result": 0.544},
      {"measurement": "relative viability", "setting": "[6]; first compound 0.8 µM", "result": 0.601},
      {"measurement": "relative viability", "setting": "[6]; first compound 2.53 µM", "result": 0.65},
      {"measurement": "relative viability", "setting": "[6]; first compound 8 µM", "result": 0.559},
      {"measurement": "relative viability", "setting": "[7]; first compound 0.08 µM", "result": 1.05},
      {"measurement": "relative viability", "setting": "[7]; first compound 0.8 µM", "result": 1.17},
      {"measurement": "relative viability", "setting": "[7]; first compound 2.53 µM", "result": 1.16},
      {"measurement": "relative viability", "setting": "[7]; first compound 8 µM", "result": 1.16},
      {"measurement": "relative viability", "setting": "[8]; first compound 0.08 µM", "result": 0.736},
      {"measurement": "relative viability", "setting": "[8]; first compound 0.8 µM", "result": 0.842},
      {"measurement": "relative viability", "setting": "[8]; first compound 2.53 µM", "result": 0.912},
      {"measurement": "relative viability", "setting": "[8]; first compound 8 µM", "result": 0.755},
      {"measurement": "relative viability", "setting": "[9]; first compound 0.08 µM", "result": 0.968},
      {"measurement": "relative viability", "setting": "[9]; first compound 0.8 µM", "result": 1.08},
      {"measurement": "relative viability", "setting": "[9]; first compound 2.53 µM", "result": 1.09},
      {"measurement": "relative viability", "setting": "[9]; first compound 8 µM", "result": 0.978},
      {"measurement": "relative viability", "setting": "[10]; first compound 0.08 µM", "result": 0.904},
      {"measurement": "relative viability", "setting": "[10]; first compound 0.8 µM", "result": 1.13},
      {"measurement": "relative viability", "setting": "[10]; first compound 2.53 µM", "result": 1.08},
      {"measurement": "relative viability", "setting": "[10]; first compound 8 µM", "result": 0.953},
      {"measurement": "relative viability", "setting": "[11]; first compound 0.08 µM", "result": 1.25},
      {"measurement": "relative viability", "setting": "[11]; first compound 0.8 µM", "result": 1.24},
      {"measurement": "relative viability", "setting": "[11]; first compound 2.53 µM", "result": 1.27},
      {"measurement": "relative viability", "setting": "[11]; first compound 8 µM", "result": 1.06},
      {"measurement": "relative viability", "setting": "[12]; first compound 0.08 µM", "result": 0.848},
      {"measurement": "relative viability", "setting": "[12]; first compound 0.8 µM", "result": 0.865},
      {"measurement": "relative viability", "setting": "[12]; first compound 2.53 µM", "result": 0.924},
      {"measurement": "relative viability", "setting": "[12]; first compound 8 µM", "result": 0.769},
      {"measurement": "relative viability", "setting": "[13]; first compound 0.08 µM", "result": 0.712},
      {"measurement": "relative viability", "setting": "[13]; first compound 0.8 µM", "result": 0.76},
      {"measurement": "relative viability", "setting": "[13]; first compound 2.53 µM", "result": 0.916},
      {"measurement": "relative viability", "setting": "[13]; first compound 8 µM", "result": 0.765},
      {"measurement": "relative viability", "setting": "[14]; first compound 0.08 µM", "result": 1.14},
      {"measurement": "relative viability", "setting": "[14]; first compound 0.8 µM", "result": 1.1},
      {"measurement": "relative viability", "setting": "[14]; first compound 2.53 µM", "result": 1.13},
      {"measurement": "relative viability", "setting": "[14]; first compound 8 µM", "result": 1.13},
      {"measurement": "relative viability", "setting": "[15]; first compound 0.08 µM", "result": 1.06},
      {"measurement": "relative viability", "setting": "[15]; first compound 0.8 µM", "result": 0.97},
      {"measurement": "relative viability", "setting": "[15]; first compound 2.53 µM", "result": 1.01},
      {"measurement": "relative viability", "setting": "[15]; first compound 8 µM", "result": 1.07},
      {"measurement": "relative viability", "setting": "[16]; first compound 0.08 µM", "result": 0.819},
      {"measurement": "relative viability", "setting": "[16]; first compound 0.8 µM", "result": 0.891},
      {"measurement": "relative viability", "setting": "[16]; first compound 2.53 µM", "result": 0.887},
      {"measurement": "relative viability", "setting": "[16]; first compound 8 µM", "result": 0.75},
      {"measurement": "relative viability", "setting": "[17]; first compound 0.08 µM", "result": 1.12},
      {"measurement": "relative viability", "setting": "[17]; first compound 0.8 µM", "result": 1.12},
      {"measurement": "relative viability", "setting": "[17]; first compound 2.53 µM", "result": 1.18},
      {"measurement": "relative viability", "setting": "[17]; first compound 8 µM", "result": 1.07},
      {"measurement": "relative viability", "setting": "[18]; first compound 0.08 µM", "result": 1.02},
      {"measurement": "relative viability", "setting": "[18]; first compound 0.8 µM", "result": 1.09},
      {"measurement": "relative viability", "setting": "[18]; first compound 2.53 µM", "result": 1.07},
      {"measurement": "relative viability", "setting": "[18]; first compound 8 µM", "result": 1.16},
      {"measurement": "relative viability", "setting": "[19]; first compound 0.08 µM", "result": 1.15},
      {"measurement": "relative viability", "setting": "[19]; first compound 0.8 µM", "result": 1.14},
      {"measurement": "relative viability", "setting": "[19]; first compound 2.53 µM", "result": 1.11},
      {"measurement": "relative viability", "setting": "[19]; first compound 8 µM", "result": 1.06},
      {"measurement": "relative viability", "setting": "[20]; first compound 0.08 µM", "result": 1.37},
      {"measurement": "relative viability", "setting": "[20]; first compound 0.8 µM", "result": 1.38},
      {"measurement": "relative viability", "setting": "[20]; first compound 2.53 µM", "result": 1.28},
      {"measurement": "relative viability", "setting": "[20]; first compound 8 µM", "result": 1.08},
      {"measurement": "relative viability", "setting": "[21]; first compound 0.08 µM", "result": 1.03},
      {"measurement": "relative viability", "setting": "[21]; first compound 0.8 µM", "result": 1.08},
      {"measurement": "relative viability", "setting": "[21]; first compound 2.53 µM", "result": 0.994},
      {"measurement": "relative viability", "setting": "[21]; first compound 8 µM", "result": 0.976},
      {"measurement": "relative viability", "setting": "[22]; first compound 0.08 µM", "result": 0.836},
      {"measurement": "relative viability", "setting": "[22]; first compound 0.8 µM", "result": 0.965},
      {"measurement": "relative viability", "setting": "[22]; first compound 2.53 µM", "result": 0.95},
      {"measurement": "relative viability", "setting": "[22]; first compound 8 µM", "result": 1},
      {"measurement": "relative viability", "setting": "[23]; first compound 0.08 µM", "result": 0.953},
      {"measurement": "relative viability", "setting": "[23]; first compound 0.8 µM", "result": 0.861},
      {"measurement": "relative viability", "setting": "[23]; first compound 2.53 µM", "result": 1.04},
      {"measurement": "relative viability", "setting": "[23]; first compound 8 µM", "result": 0.888},
      {"measurement": "relative viability", "setting": "[24]; first compound 0.08 µM", "result": 1.06},
      {"measurement": "relative viability", "setting": "[24]; first compound 0.8 µM", "result": 1.14},
      {"measurement": "relative viability", "setting": "[24]; first compound 2.53 µM", "result": 1.21},
      {"measurement": "relative viability", "setting": "[24]; first compound 8 µM", "result": 1.28}
    ]}
  ]
}
